Here are results for eleven compounds from patent publication US8835462B2, “Macrocyclic picolinamides as fungicides” (Dow AgroSciences LLC, priority 2012, dated 2014).

Like-named read-outs stand apart in the source and are kept apart here.

Common to all, as to assay type: in vivo
One experiment deals with Erysiphe cichoracearum. Description: Powdery mildew of cucumber (ERYSCI) fungicidal activity. To be noted: Golovinomyces cichoracearum, 24 h, 1 Day Protectant, read-out: Disease Control ERYSCI 1DP. The method, then: Technical grades of materials were dissolved in acetone, which were then mixed with nine volumes of water containing 110 ppm Triton X-100. The fungicide solutions were applied onto wheat seedlings using an automated booth sprayer to run-off. All sprayed plants were allowed to air dry prior to further handling. Wheat plants (variety Yuma) were grown from seed in a greenhouse in 50% mineral soil/50% soil-less Metro mix until the first leaf was fully emerged, with 7-10 seedlings per pot. These plants were inoculated with an aqueous spore suspension of Septoria tritici either prior to or after fungicide treatments. After inoculation the plants were kept in 100% relative humidity (one day in a dark dew chamber followed by two to three days in a lighted dew chamber at 20° C.) to permit spores to germinate and infect the leaf. The plants were then transferred to a greenhouse set at 20° C. for disease to develop. When disease symptoms were fully expressed on the 1st leaves of untreated plants, infection levels were assessed on a scale of 0 to 100 percent disease severity. Percent disease control was calculated using the ratio of disease severity on treated plants relative to untreated plants. Evaluation of Fungicidal Activity: Powdery Mildew of Cucumber (Erysiphe cichoracearum; Bayer Code […]) Cucumber seedlings (variety Bush Pickle) were grown in soil-less Metro mix, with one plant per pot, and used in the test when 12 to 14 days old. Plants were inoculated with a spore suspension 24 hr following fungicide treatments. After inoculation the plants remained in the greenhouse set at 20° C. until disease was fully expressed. Fungicide formulation, application and disease assessment on the sprayed leaves followed the procedures as described in the Example A.

Experiment [1] deals with Mycosphaerella graminicola; Anamorph: Septoria tritici. Description: Leaf blotch of wheat (SEPTTR) fungicidal activity on wheat seedlings. Particulars: Zymoseptoria tritici. In outline:
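Compounds in acetone were diluted with nine volumes of water containing 110 ppm Triton X-100 and sprayed to run-off on Yuma wheat seedlings at first-leaf stage. Septoria tritici spores were inoculated before or after treatment, followed by dew chambers at 100% RH and 20 °C, then greenhouse at 20 °C. Severity (0–100%) was scored once untreated plants were fully diseased; control was calculated relative to untreated plants.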

A further experiment deals with Alternaria solani. Description: Tomato early blight (ALTESO) fungicidal activity. To be noted: 24 h, 1 Day Protectant, read-out: Disease Control ALTESO 1DP. The method, then:
Technical grades of materials were dissolved in acetone, which were then mixed with nine volumes of water containing 110 ppm Triton X-100. The fungicide solutions were applied onto wheat seedlings using an automated booth sprayer to run-off. All sprayed plants were allowed to air dry prior to further handling. Wheat plants (variety Yuma) were grown from seed in a greenhouse in 50% mineral soil/50% soil-less Metro mix until the first leaf was fully emerged, with 7-10 seedlings per pot. These plants were inoculated with an aqueous spore suspension of Septoria tritici either prior to or after fungicide treatments. After inoculation the plants were kept in 100% relative humidity (one day in a dark dew chamber followed by two to three days in a lighted dew chamber at 20° C.) to permit spores to germinate and infect the leaf. The plants were then transferred to a greenhouse set at 20° C. for disease to develop. When disease symptoms were fully expressed on the 1st leaves of untreated plants, infection levels were assessed on a scale of 0 to 100 percent disease severity. Percent disease control was calculated using the ratio of disease severity on treated plants relative to untreated plants. Evaluation of Fungicidal Activity: Tomato Early Blight (Alternaria Solani; Bayer Code […]) Tomato plants (variety Outdoor girl) were propagated in soil-less Metro mix, with each pot having one plant, and used when 12 to 14 days old. Test plants were inoculated with an aqueous spore suspension of Alternaria solani 24 hr after fungicide treatments. After inoculation the plants were kept in 100% relative humidity (one day in a dark dew chamber followed by two to three days in a lighted dew chamber at 20° C.) to permit spores to germinate and infect the leaf. The plants were then transferred to a growth room at 22° C. for disease to develop. Fungicide formulation, application and disease assessment on the sprayed leaves followed the procedures as described in the Example A.

Experiment [2] has as its system Blumeria graminis f. sp. tritici. Description: Wheat powdery mildew (ERYSGT) fungicidal activity. To be noted: 24 h, 1 Day Protectant, read-out: Disease Control ERYSGT 1DP. The method, then: Technical grades of materials were dissolved in acetone, which were then mixed with nine volumes of water containing 110 ppm Triton X-100. The fungicide solutions were applied onto wheat seedlings using an automated booth sprayer to run-off. All sprayed plants were allowed to air dry prior to further handling. Wheat plants (variety Yuma) were grown from seed in a greenhouse in 50% mineral soil/50% soil-less Metro mix until the first leaf was fully emerged, with 7-10 seedlings per pot. These plants were inoculated with an aqueous spore suspension of Septoria tritici either prior to or after fungicide treatments. After inoculation the plants were kept in 100% relative humidity (one day in a dark dew chamber followed by two to three days in a lighted dew chamber at 20° C.) to permit spores to germinate and infect the leaf. The plants were then transferred to a greenhouse set at 20° C. for disease to develop. When disease symptoms were fully expressed on the 1st leaves of untreated plants, infection levels were assessed on a scale of 0 to 100 percent disease severity. Percent disease control was calculated using the ratio of disease severity on treated plants relative to untreated plants. Evaluation of Fungicidal Activity: Wheat Powdery Mildew (Blumeria Graminis f. sp. Tritici; Synonym: Erysiphe graminis f. sp. Tritici; Bayer Code […]) Wheat plants (variety Yuma) were grown from seed in a greenhouse in 50% mineral soil/50% soil-less Metro mix until the first leaf was fully emerged, with 7-10 seedlings per pot. These plants were inoculated by dusting with infected stock plants 24 hr after fungicide treatments. After inoculation the plants were kept in a greenhouse set at 20° C. for disease to develop. Fungicide formulation, application and disease assessment on the sprayed leaves followed the procedures as described in the Example A.

Where [3] appears, read: 24 h, 1 Day Protectant, read-out: Disease Control SEPTTR 1 DP.
Where [4] appears, read: 72 h, 3 Day Curative, read-out: Disease Control SEPTTR 3 DC.

`COc1ccnc(C(=O)N[C@H]2COC[C@H](Cc3ccccc3)[C@@H](OCC(C)C)[C@H](C)OC2=O)c1OCOC(C)=O` [Compound 8, (2-((3S,7S,8R,9S)-7-benzyl-8-isobutoxy-9-methyl-2-oxo-1,5-dioxonan-3-ylcarbamoyl)-4-methoxypyridin-3-yloxy)methyl acetate]: the pest or weed control at 100 ppm (in the experiment with Erysiphe cichoracearum; in experiment [1] (setting [3]); in experiment [1] (setting [4]); in the experiment with Alternaria solani; in experiment [2]) was 80 to 100% throughout.
For `COc1ccnc(C(=O)N[C@H]2COC[C@H](Cc3ccccc3)[C@@H](OCC(C)C)[C@H](C)OC2=O)c1OC(C)=O` [Compound 9, 2-(((3S,7S,8R,9S)-7-benzyl-8-isobutoxy-9-methyl-2-oxo-1,5-dioxonan-3-yl)carbamoyl)-4-methoxypyridin-3-yl acetate], the pest or weed control at 100 ppm (in the experiment on Erysiphe cichoracearum; in experiment [1] (setting [3]); in experiment [1] (setting [4]); with Alternaria solani; in experiment [2]) was 80 to 100% each time.
With `COc1ccnc(C(=O)N[C@H]2COC[C@H](Cc3ccccc3)[C@@H](OCC(C)C)[C@H](C)OC2=O)c1OC(=O)OC(C)C` [Compound 10, 2-(((3S,7S,8R,9S)-7-benzyl-8-isobutoxy-9-methyl-2-oxo-1,5-dioxonan-3-yl)carbamoyl)-4-methoxypyridin-3-yl isopropyl carbonate], the pest or weed control at 100 ppm in the experiment on Erysiphe cichoracearum was in the range of 80 to 100%; in experiment [1] (setting [3]), 80 to 100%; in experiment [1] (setting [4]) it was 80 to 100%; in the experiment on Alternaria solani, 0 to 80%; in experiment [2] it was 0 to 80%.
As for `COCCCO[C@@H]1[C@@H](Cc2ccccc2)COC[C@H](NC(=O)c2nccc(OC)c2OCOC(C)=O)C(=O)O[C@H]1C` [Compound 16], the pest or weed control at 100 ppm (in the experiment with Erysiphe cichoracearum; in experiment [1] (setting [3]); in experiment [1] (setting [4]); in the experiment on Alternaria solani; in experiment [2]) was 80 to 100% in each case.
For `CCCO[C@@H]1[C@@H](Cc2ccccc2)COC[C@H](NC(=O)c2nccc(OC)c2OCOC(C)=O)C(=O)O[C@H]1C` [Compound 22], the pest or weed control at 100 ppm (in the experiment with Erysiphe cichoracearum; in experiment [1] (setting [3]); in experiment [1] (setting [4]); in the experiment on Alternaria solani; in experiment [2]) was 80 to 100% each time.
Consider `COc1ccnc(C(=O)N[C@H]2COC[C@H](Cc3ccccc3)[C@@H](OCCCC(F)(F)F)[C@H](C)OC2=O)c1OCOC(C)=O` [Compound 23], for which the pest or weed control at 100 ppm (in the experiment on Erysiphe cichoracearum; in experiment [1] (setting [3]); in experiment [1] (setting [4]); in the experiment on Alternaria solani; in experiment [2]) was 80 to 100% each time.
For the compound `CCCCCO[C@@H]1[C@@H](Cc2ccccc2)COC[C@H](NC(=O)c2nccc(OC)c2OCOC(C)=O)C(=O)O[C@H]1C` [Compound 26], the pest or weed control at 100 ppm in the experiment on Erysiphe cichoracearum is 80 to 100%; in experiment [1] (setting [3]), 80 to 100%; in experiment [1] (setting [4]) it was 80 to 100%; in the experiment on Alternaria solani it was 80 to 100%; in experiment [2], 0 to 80%.
For the compound `COc1ccnc(C(=O)N[C@H]2COC[C@H](Cc3ccccc3)[C@@H](OCCCc3ccccc3)[C@H](C)OC2=O)c1OCOC(C)=O` [Compound 34], the pest or weed control at 100 ppm was in the range of 0 to 80% in the experiment with Erysiphe cichoracearum; 80 to 100% in experiment [1] (setting [3]); 80 to 100% in experiment [1] (setting [4]); 80 to 100% with Alternaria solani; 0 to 80% in experiment [2].
As for `COC(=O)/C=C/O[C@@H]1[C@@H](Cc2ccccc2)COC[C@H](NC(=O)c2nccc(OC)c2OCOC(C)=O)C(=O)O[C@H]1C` [Compound 36], the pest or weed control at 100 ppm with Erysiphe cichoracearum is 0 to 80%; in experiment [1] (setting [3]), 80 to 100%; in experiment [1] (setting [4]) it was 80 to 100%; with Alternaria solani, 0 to 80%; in experiment [2], 0 to 80%.
As for `COc1ccnc(C(=O)N[C@H]2COC[C@H](Cc3ccccc3)[C@@H](OC(=O)C3CC3)[C@H](C)OC2=O)c1OCOC(C)=O` [Compound 38], the pest or weed control at 100 ppm in the experiment on Erysiphe cichoracearum fell in the range of 0 to 80%; in experiment [1] (setting [3]) it was 80 to 100%; in experiment [1] (setting [4]) it was 80 to 100%; in the experiment on Alternaria solani it was 80 to 100%; in experiment [2] it was 0 to 80%.
For the compound `COc1ccnc(C(=O)N[C@H]2COC[C@H](Cc3ccccc3)[C@@H](OC)[C@H](C)OC2=O)c1OCOC(C)=O` [Compound 39], the pest or weed control at 100 ppm was 0 to 80% with Erysiphe cichoracearum; 80 to 100% in experiment [1] (setting [3]); 80 to 100% in experiment [1] (setting [4]); 0 to 80% in the experiment with Alternaria solani; 0 to 80% in experiment [2].
